# In patent publication US10703748B2, “Diazanaphthalen-3-yl carboxamides and preparation and use thereof” (Samumed, LLC, priority 2017, dated 2020):
# Experiments:
# [1] = biological target: DYRK1A kinase (Homo sapiens, UniProt Q13627); assay: DYRK1A kinase activity (Ser/Thr 18 peptide Z-lyte FRET assay); type: biochemical; details: recombinant DYRK1A, 30 μM ATP, one hour at room temperature;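 further: kinase activity read as coumarin/fluorescein emission ratio after development step, with unphosphorylated and phosphorylated peptide forms setting 0% and 100% controls, values from dose-response curves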
# [2] = biological target: GSK3β kinase (Homo sapiens, UniProt P49841); assay: GSK3β kinase activity (Ser/Thr 09 peptide Z-lyte FRET assay); type: biochemical; details: recombinant kinase, 46 μM ATP, one hour at room temperature; read-out: EC50
# [3] = system: secreted cytokines TNFα, IL-6 and KC-GRO; assay: Secreted cytokines in Lipopolysaccharide-stimulated BV-2 cells (Table 9 does not say which cytokine); type: cell-based, mouse; details: Mus musculus, BV-2, 5 h; read-out: EC50
# [4] = system: SW480 colon carcinoma cells; assay: Cell viability assay (CellTiter-Glo); details: Homo sapiens; for EC50: SW480, 96 h; for inhibition at 10 µM: SW480, read-out: percent inhibition at 10 μM
# [5] = system: Wnt-responsive Sp5-Luc reporter in SW480 colon carcinoma cells; assay: Screening assay for Wnt activity (Sp5-Luc reporter gene assay); details: Homo sapiens; for EC50: SW480; for inhibition at 10 µM: SW480, read-out: percent inhibition at 10 μM
# Protocol: The screening assay for Wnt activity is described as follows.
# SW480 colon carcinoma cells were transduced with a lentiviral vector expressing luciferase with a human Sp5 promoter consisting of a sequence of eight TCF/LEF binding sites. […] These stably transduced SW480 cells were expanded in cell culture and used for all further screening activities. Each compound was dissolved in DMSO as a 10 mM stock and used to prepare compound source plates. Serial dilution (1:3, 10-point dose-response curves starting from 10 μM) and compound transfer was performed using the ECHO 550 (Labcyte, Sunnyvale, Calif.) into 384-well white solid bottom assay plates (Greiner Bio-One) with appropriate DMSO backfill for a final DMSO concentration of 0.1%. […] Following incubation, 15 μl of BriteLite Plus luminescence reagent (Perkin Elmer) was added to each well of the 384-well assay plates. The plates were placed on an orbital shaker for 2 min and then luminescence was quantified using the Envision (Perkin Elmer) plate reader.
# [6] = system: IL-6; assay: IL-6 inhibition in LPS-stimulated human peripheral blood mononuclear cells (HTRF); details: Homo sapiens, PBMC; for EC50: 22 h; for inhibition at 10 µM: read-out: percentage in parentheses after EC50 >10
# [7] = system: α-smooth muscle actin (aSMA) positive LL29 cells; assay: Inhibition of the fibrotic process: αSMA staining in TGF-β1 treated LL29 fibroblasts from IPF patients; details: Homo sapiens, Fibroblast; for EC50: 96 h; for inhibition at 10 µM: read-out: percentage in parentheses after EC50 >10
# Chain of GSK3β kinase (P49841 whole entry): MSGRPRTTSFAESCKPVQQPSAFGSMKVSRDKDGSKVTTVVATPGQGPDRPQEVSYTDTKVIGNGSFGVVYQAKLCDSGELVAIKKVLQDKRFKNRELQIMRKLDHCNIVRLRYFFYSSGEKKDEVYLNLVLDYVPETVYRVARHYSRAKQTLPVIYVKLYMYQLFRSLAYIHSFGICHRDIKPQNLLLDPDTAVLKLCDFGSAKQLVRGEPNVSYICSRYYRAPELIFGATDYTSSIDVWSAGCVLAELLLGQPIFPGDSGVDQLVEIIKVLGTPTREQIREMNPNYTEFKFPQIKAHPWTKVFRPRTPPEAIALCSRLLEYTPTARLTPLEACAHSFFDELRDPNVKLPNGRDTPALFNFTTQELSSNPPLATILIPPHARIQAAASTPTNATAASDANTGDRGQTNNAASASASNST
Compound,EC50 [1] [µM],EC50 [2] [µM],EC50 [3] [µM],EC50 [4] [µM],EC50 [5] [µM],EC50 [6] [µM],inhibition at 10 µM [4] [%],inhibition at 10 µM [5] [%],inhibition at 10 µM [6] [%],EC50 [7] [µM],inhibition at 10 µM [7] [%]
"CC(F)(F)CN1CCC(C(=O)Nc2cc3cc(-c4cnco4)cnc3cn2)CC1 [Compound 3257, 1-(2,2-Difluoropropyl)-N-(3-(oxazol-5-yl)-1,7-naphthyridin-6-yl)piperidine-4-carboxamide]",0.016,5.3,0.458,> 10,> 10,> 10,15,12.9,3.2,> 10,36
"Cn1cncc1-c1cnc2cnc(NC(=O)c3cccc(CN4CCCC4)c3)cc2c1 [Compound 3259, N-(3-(1-Methyl-1H-imidazol-5-yl)-1,7-naphthyridin-6-yl)-3-(pyrrolidin-1-ylmethyl)benzamide]",0.024,> 10,1.2,1.94,3.5,> 10,,,4.1,> 10,48.4
"CN1CCC(Oc2cccc(C(=O)Nc3cc4cc(-c5cnco5)cnc4cn3)c2)CC1 [Compound 3311, 3-((1-Methylpiperidin-4-yl)oxy)-N-(3-(oxazol-5-yl)-1,7-naphthyridin-6-yl) benzamide]",0.007,> 10,0.42,> 10,> 10,> 10,5.4,4.9,5.8,1.44,
"CN1CCC(C(=O)Nc2cc3cc(-c4cnsc4)cnc3cn2)CC1 [Compound 3412, N-(3-(Isothiazol-4-yl)-1,7-naphthyridin-6-yl)-1-methylpiperidine-4-carboxamide]",0.04,> 10,1.5,> 10,> 10,> 10,41.5,47.1,2.7,> 10,46.2
"Nc1cncc(-c2cnc3cnc(NC(=O)c4ccc(OC5CCNCC5)cc4)cc3c2)c1 [Compound 3524, N-(3-(5-Aminopyridin-3-yl)-1,7-naphthyridin-6-yl)-4-(piperidin-4-yloxy) benzamide]",0.011,> 10,0.582,3.71,3.55,> 10,,,5.6,> 10,50
"CN1CC=C(c2cc(C(=O)Nc3cc4cc(-c5cncc(NC(C)(C)C)n5)cnc4cn3)ccn2)CC1 [Compound 3587, N-(3-(6-(tert-Butylamino)pyrazin-2-yl)-1,7-naphthyridin-6-yl)-1′-methyl-1′,2′,3′,6′-tetrahydro-[2,4′-bipyridine]-4-carboxamide]",0.001,> 10,0.011,0.821,0.357,7.67,,,,1.44,
"O=C(Nc1cc2cc(-c3cncc(NC4CCNCC4)n3)cnc2cn1)C1CCOCC1 [Compound 3597, N-(3-(6-(Piperidin-4-ylamino)pyrazin-2-yl)-1,7-naphthyridin-6-yl) tetrahydro-2H-pyran-4-carboxamide]",0.006,> 10,≥ 10,> 10,> 10,> 10,8.1,7.6,0,> 10,7.7
"O=C(Nc1cc2cc(-c3cncc(N[C@H]4CCNC[C@@H]4F)n3)cnc2cn1)C1CC1 [Compound 3599, N-(3-(6-(((3S,4S)-3-Fluoropiperidin-4-yl)amino)pyrazin-2-yl)-1,7-naphthyridin-6-yl)cyclopropanecarboxamide]",0.008,0.78,0.832,8.85,> 10,> 10,,41.3,40.1,3.01,
"CN1CCC(n2cc(C(=O)Nc3cc4cc(-c5cncc6[nH]ccc56)cnc4cn3)cn2)CC1 [Compound 3616, N-(3-(1H-Pyrrolo[2,3-c]pyridin-4-yl)-1,7-naphthyridin-6-yl)-1-(1-methylpiperidin-4-yl)-1H-pyrazole-4-carboxamide]",0.029,> 10,1.2,0.504,0.485,2.37,,,,3.16,
"CC(C)n1cc(C(=O)Nc2cc3cc(-c4cncc(NC5CCN(C)CC5)n4)cnc3cn2)cn1 [Compound 3627, 1-Isopropyl-N-(3-(6-((1-methylpiperidin-4-yl)amino)pyrazin-2-yl)-1,7-naphthyridin-6-yl)-1H-pyrazole-4-carboxamide]",0.007,> 10,0.708,3.42,1.68,> 10,,,10.6,> 10,33.4

# Now from value to compound, other results behind:
EC50 [1] [µM],EC50 [2] [µM],EC50 [3] [µM],EC50 [4] [µM],EC50 [5] [µM],EC50 [6] [µM],Compound,inhibition at 10 µM [4] [%],inhibition at 10 µM [5] [%],inhibition at 10 µM [6] [%],EC50 [7] [µM],inhibition at 10 µM [7] [%]
0.01,0.397,0.972,9.64,> 10,> 10,"CN1CCN(c2cc(C(=O)Nc3cc4cc(-c5cnn(C)c5)ncc4cn3)ccn2)CC1 [Compound 3774, N-(6-(1-Methyl-1H-pyrazol-4-yl)-2,7-naphthyridin-3-yl)-2-(4-methylpiperazin-1-yl)isonicotinamide]",,54.7,10.8,5.86,
0.004,0.187,0.72,7.72,3.97,> 10,"CN1CCN(c2ccc(C(=O)Nc3cc4cc(-c5cnn(C)c5)ncc4cn3)cn2)CC1 [Compound 3778, N-(6-(1-Methyl-1H-pyrazol-4-yl)-2,7-naphthyridin-3-yl)-6-(4-methylpiperazin-1-yl)nicotinamide]",,,4.2,0.694,
0.004,2.34,5.3,1.97,1.08,> 10,"CN1CCC(Nc2cncc(C(=O)Nc3cc4cc(-c5cnn(C)c5)ncc4cn3)c2)CC1 [Compound 3783, N-(6-(1-Methyl-1H-pyrazol-4-yl)-2,7-naphthyridin-3-yl)-5-((1-methylpiperidin-4-yl)amino)nicotinamide]",,,1.7,2.1,
0.01,1.35,3.9,3.42,0.482,> 10,"CN(C)CCNc1cc(C(=O)Nc2cc3cc(-c4cnn(C)c4)ncc3cn2)ccn1 [Compound 3791, 2-((2-(Dimethylamino)ethyl)amino)-N-(6-(1-methyl-1H-pyrazol-4-yl)-2,7-naphthyridin-3-yl)isonicotinamide]",,,0,4.95,
0.008,0.409,0.054,7.02,0.427,> 10,"CN(C)Cc1ccc(C(=O)Nc2cc3cc(-c4cnn(C)c4)ncc3cn2)cc1 [Compound 3797, 4-((Dimethylamino)methyl)-N-(6-(1-methyl-1H-pyrazol-4-yl)-2,7-naphthyridin-3-yl)benzamide]",,,7,2.7,
0.01,0.763,0.533,9.32,0.994,> 10,"CN1CCc2ccc(C(=O)Nc3cc4cc(-c5cnn(C)c5)ncc4cn3)cc2C1 [Compound 3829, 2-Methyl-N-(6-(1-methyl-1H-pyrazol-4-yl)-2,7-naphthyridin-3-yl)-1,2,3,4-tetrahydroisoquinoline-7-carboxamide]",,,5.3,0.759,
0.005,1.47,1,> 10,0.22,> 10,"Cn1cc(-c2cc3cc(NC(=O)c4ccc5ccoc5c4)ncc3cn2)cn1 [Compound 3836, N-(6-(1-Methyl-1H-pyrazol-4-yl)-2,7-naphthyridin-3-yl)benzofuran-6-carboxamide]",33.9,,1.4,> 10,10
0.006,1.16,≥ 10,> 10,> 10,> 10,"Cn1cc(-c2cc3cc(NC(=O)c4ccc5nccnc5c4)ncc3cn2)cn1 [Compound 3843, N-(6-(1-Methyl-1H-pyrazol-4-yl)-2,7-naphthyridin-3-yl)quinoxaline-6-carboxamide]",14,25,6.8,1.28,
0.01,1.75,0.194,0.446,0.367,3.99,"CN1CCC(n2cc(C(=O)Nc3cc4cc(-c5cnn(C)c5)ncc4cn3)cn2)CC1 [Compound 3856, N-(6-(1-Methyl-1H-pyrazol-4-yl)-2,7-naphthyridin-3-yl)-1-(1-methylpiperidin-4-yl)-1H-pyrazole-4-carboxamide]",,,,> 10,17.5
